Reference: patent US12466827B2, “1,3,4-oxadiazole derivative compounds as histone deacetylase 6 inhibitor, and the pharmaceutical composition comprising the same” (CHONG KUN DANG PHARMACEUTICAL CORP., priority 2020, dated 2025)

Tests used:
human recombinant HDAC1 = target: T1, human recombinant HDAC1 (Homo sapiens, UniProt Q13547); assay: In vitro HDAC enzyme activity inhibition assay (HDAC1); format: biochemical; conditions: Fluor de Lys-SIRT1 substrate 10 μM, 30° C., 60 minutes, fluorescence
T1 construct: purchased Enzo Life Sciences, Inc. BML-SE456
Method in brief: (§1)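 Fluorimetric deacetylase kit: human recombinant HDAC1 or HDAC6 (0.3 μg) with 10 μM Fluor de Lys-SIRT1 substrate and 5-fold diluted compounds, 60 min at 30° C. Developer added for 30 min, fluorescence read at Ex 360/Em 460, IC50 calculated.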

human recombinant HDAC6 = target: T2, human recombinant HDAC6 (Homo sapiens, UniProt Q9UBN7); assay: In vitro HDAC enzyme activity inhibition assay (HDAC6); format: biochemical; conditions: for HDAC6 selectivity (fold): HDAC6 over HDAC1; for IC50: same protocol as the HDAC1 test, human recombinant HDAC6 (Calbiochem)
T2 construct: purchased Calbiochem Inc. 382180
T2 sequence (Q9UBN7 1-1215): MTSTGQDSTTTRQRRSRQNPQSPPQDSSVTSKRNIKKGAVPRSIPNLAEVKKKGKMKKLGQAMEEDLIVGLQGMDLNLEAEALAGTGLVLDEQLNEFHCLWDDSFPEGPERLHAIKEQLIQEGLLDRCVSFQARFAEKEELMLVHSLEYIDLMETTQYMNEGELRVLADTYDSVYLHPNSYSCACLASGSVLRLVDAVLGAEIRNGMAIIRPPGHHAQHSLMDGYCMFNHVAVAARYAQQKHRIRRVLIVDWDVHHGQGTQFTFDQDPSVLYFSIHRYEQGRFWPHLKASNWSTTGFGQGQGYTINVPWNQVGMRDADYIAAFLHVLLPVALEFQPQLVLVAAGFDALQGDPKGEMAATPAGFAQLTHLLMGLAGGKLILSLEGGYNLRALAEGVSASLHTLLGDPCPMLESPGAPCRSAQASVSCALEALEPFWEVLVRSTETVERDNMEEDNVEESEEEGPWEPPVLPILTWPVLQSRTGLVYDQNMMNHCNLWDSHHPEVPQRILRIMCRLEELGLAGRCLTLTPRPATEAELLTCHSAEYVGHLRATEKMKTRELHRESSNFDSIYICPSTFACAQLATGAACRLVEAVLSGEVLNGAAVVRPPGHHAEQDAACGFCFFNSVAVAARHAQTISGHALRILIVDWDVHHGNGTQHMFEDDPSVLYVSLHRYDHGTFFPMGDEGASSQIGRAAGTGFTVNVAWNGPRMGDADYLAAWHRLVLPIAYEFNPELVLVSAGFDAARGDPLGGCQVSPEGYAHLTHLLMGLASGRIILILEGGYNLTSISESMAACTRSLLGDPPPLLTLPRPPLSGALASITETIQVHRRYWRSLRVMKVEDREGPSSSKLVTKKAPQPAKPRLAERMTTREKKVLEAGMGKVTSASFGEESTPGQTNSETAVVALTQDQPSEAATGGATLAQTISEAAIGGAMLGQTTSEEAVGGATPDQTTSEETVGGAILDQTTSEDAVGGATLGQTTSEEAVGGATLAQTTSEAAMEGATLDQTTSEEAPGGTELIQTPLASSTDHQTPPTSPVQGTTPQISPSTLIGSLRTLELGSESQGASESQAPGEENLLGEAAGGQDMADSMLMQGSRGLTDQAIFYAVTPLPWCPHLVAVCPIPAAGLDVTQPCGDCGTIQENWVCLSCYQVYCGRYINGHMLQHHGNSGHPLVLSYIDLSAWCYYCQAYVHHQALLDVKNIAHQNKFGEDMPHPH
Method in brief: as §1

T1 sequence (Q13547 whole entry): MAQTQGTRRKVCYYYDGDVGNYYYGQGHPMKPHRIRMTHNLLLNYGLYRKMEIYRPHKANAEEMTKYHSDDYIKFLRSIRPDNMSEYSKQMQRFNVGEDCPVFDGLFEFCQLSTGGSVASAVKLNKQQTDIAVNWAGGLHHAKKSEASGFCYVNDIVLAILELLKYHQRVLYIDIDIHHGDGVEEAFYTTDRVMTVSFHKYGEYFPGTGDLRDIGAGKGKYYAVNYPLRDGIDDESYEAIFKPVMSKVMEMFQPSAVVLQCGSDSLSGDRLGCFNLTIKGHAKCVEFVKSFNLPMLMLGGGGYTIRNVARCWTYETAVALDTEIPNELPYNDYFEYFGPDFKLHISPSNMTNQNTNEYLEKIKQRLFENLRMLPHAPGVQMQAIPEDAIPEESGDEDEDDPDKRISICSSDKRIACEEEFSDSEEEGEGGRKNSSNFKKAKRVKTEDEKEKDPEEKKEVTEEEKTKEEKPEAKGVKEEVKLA

Structure (SMILES) | IC50 (human recombinant HDAC1) [nM] | HDAC6 selectivity (fold) (human recombinant HDAC6) | IC50 (human recombinant HDAC6) [nM]
O=S(=O)(N1CCN(C2CCCCC2)CC1)N(Cc1cn2ccc(-c3nnc(C(F)F)o3)cc2n1)c1cccc(F)c1 [Compound 4303, 4-cyclohexyl-N-((7-(5-(difluoromethyl)-1,3,4-oxadiazol-2-yl)imidazo[1,2-a]pyridin-2-yl)methyl)-N-(3-fluorophenyl)piperazine-1-sulfonamide] | > 50000 | 299 | 167
O=S(=O)(N1CCN(C2CCOCC2)CC1)N(Cc1cn2ccc(-c3nnc(C(F)F)o3)cc2n1)c1cccc(F)c1 [Compound 4304, N-((7-(5-(difluoromethyl)-1,3,4-oxadiazol-2-yl)imidazo[1,2-a]pyridin-2-yl)methyl)-N-(3-fluorophenyl)-4-(tetrahydro-2H-pyran-4-yl)piperazine-1-sulfonamide] | > 50000 | 832 | 60.1
O=S(=O)(N1CCN(C2CCC(F)(F)CC2)CC1)N(Cc1cn2ccc(-c3nnc(C(F)F)o3)cc2n1)c1cccc(F)c1 [Compound 4305, 4-(4,4-difluorocyclohexyl)-N-((7-(5-(difluoromethyl)-1,3,4-oxadiazol-2-yl)imidazo[1,2-a]pyridin-2-yl)methyl)-N-(3-fluorophenyl)piperazine-1-sulfonamide] | > 50000 | 437 | 114
CC(=O)N1CCN(S(=O)(=O)N(Cc2cn3ccc(-c4nnc(C(F)F)o4)cc3n2)c2cccc(F)c2)CC1 [Compound 4306, 4-acetyl-N-((7-(5-(difluoromethyl)-1,3,4-oxadiazol-2-yl)imidazo[1,2-a]pyridin-2-yl)methyl)-N-(3-fluorophenyl)piperazine-1-sulfonamide] | > 50000 | 617 | 81
CCC(=O)N1CCN(S(=O)(=O)N(Cc2cn3ccc(-c4nnc(C(F)F)o4)cc3n2)c2cccc(F)c2)CC1 [Compound 4307, N-((7-(5-(difluoromethyl)-1,3,4-oxadiazol-2-yl)imidazo[1,2-a]pyridin-2-yl)methyl)-N-(3-fluorophenyl)-4-propionylpiperazine-1-sulfonamide] | > 50000 | 365 | 137
O=C(CO)N1CCN(S(=O)(=O)N(Cc2cn3ccc(-c4nnc(C(F)F)o4)cc3n2)c2cccc(F)c2)CC1 [Compound 4308, N-((7-(5-(difluoromethyl)-1,3,4-oxadiazol-2-yl)imidazo[1,2-a]pyridin-2-yl)methyl)-N-(3-fluorophenyl)-4-(2-hydroxyacetyl)piperazine-1-sulfonamide] | > 50000 | 724 | 69.1
O=C(C1CCC1)N1CCN(S(=O)(=O)N(Cc2cn3ccc(-c4nnc(C(F)F)o4)cc3n2)c2cccc(F)c2)CC1 [Compound 4309, 4-(cyclobutanecarbonyl)-N-((7-(5-(difluoromethyl)-1,3,4-oxadiazol-2-yl)imidazo[1,2-a]pyridine-2-yl)methyl)-N-(3-fluorophenyl)piperazine-1-sulfonamide] | > 50000 | 437 | 114
O=C(C1COC1)N1CCN(S(=O)(=O)N(Cc2cn3ccc(-c4nnc(C(F)F)o4)cc3n2)c2cccc(F)c2)CC1 [Compound 4310, N-((7-(5-(difluoromethyl)-1,3,4-oxadiazol-2-yl)imidazo[1,2-a]pyridin-2-yl)methyl)-N-(3-fluorophenyl)-4-(oxetane-3-carbonyl)piperazine-1-sulfonamide] | > 50000 | 681 | 73.4
O=C(N1CCN(S(=O)(=O)N(Cc2cn3ccc(-c4nnc(C(F)F)o4)cc3n2)c2cccc(F)c2)CC1)C(F)(F)F [Compound 4311, N-((7-(5-(difluoromethyl)-1,3,4-oxadiazol-2-yl)imidazo[1,2-a]pyridin-2-yl)methyl)-N-(3-fluorophenyl)-4-(2,2,2-trifluoroacetyl)piperazine-1-sulfonamide] | > 50000 | 510 | 98
CS(=O)(=O)N1CCN(S(=O)(=O)N(Cc2cn3ccc(-c4nnc(C(F)F)o4)cc3n2)c2cccc(F)c2)CC1 [Compound 4312, N-((7-(5-(difluoromethyl)-1,3,4-oxadiazol-2-yl)imidazo[1,2-a]pyridin-2-yl)methyl)-N-(3-fluorophenyl)-4-(methylsulfonyl)piperazine-1-sulfonamide] | > 50000 | 530 | 94.3
COC(=O)N1CCN(S(=O)(=O)N(Cc2cn3ccc(-c4nnc(C(F)F)o4)cc3n2)c2cccc(F)c2)CC1 [Compound 4313, methyl 4-(N-((7-(5-(difluoromethyl)-1,3,4-oxadiazol-2-yl)imidazo[1,2-a]pyridin-2-yl)methyl)-N-(3-fluorophenyl)sulfamoyl)piperazine-1-carboxylate] | > 50000 | 371 | 135
CN(C)C(=O)N1CCN(S(=O)(=O)N(Cc2cn3ccc(-c4nnc(C(F)F)o4)cc3n2)c2cccc(F)c2)CC1 [Compound 4314, 4—(N-((7-(5-(difluoromethyl)-1,3,4-oxadiazol-2-yl)imidazo[1,2-a]pyridin-2-yl)methyl)-N-(3-fluorophenyl)sulfamoyl)-N, N-dimethylpiperazine-1-carboxamide] | > 50000 | 462 | 108
O=S(=O)(N1CCN(c2ncccn2)CC1)N(Cc1cn2ccc(-c3nnc(C(F)F)o3)cc2n1)c1cccc(F)c1 [Compound 4315, N-((7-(5-(difluoromethyl)-1,3,4-oxadiazol-2-yl)imidazo[1,2-a]pyridin-2-yl)methyl)-N-(3-fluorophenyl)-4-(pyrimidin-2-yl)piperazine-1-sulfonamide] | > 50000 | 309 | 162
O=S(=O)(C1CCN(C2CC3(CCC3)C2)CC1)N(Cc1cn2ccc(-c3nnc(C(F)F)o3)cc2n1)c1cccc(F)c1 [Compound 4616, N-((7-(5-(difluoromethyl)-1,3,4-oxadiazol-2-yl)imidazo[1,2-a]pyridin-2-yl)methyl)-N-(3-fluorophenyl)-1-(spiro[3.3]heptan-2-yl)piperidine-4-sulfonamide] | > 50000 | 243 | 205
O=S(=O)(C1CCN(C2CC3(COC3)C2)CC1)N(Cc1cn2ccc(-c3nnc(C(F)F)o3)cc2n1)c1cccc(F)c1 [Compound 4617, N-((7-(5-(difluoromethyl)-1,3,4-oxadiazol-2-yl)imidazo[1,2-a]pyridin-2-yl)methyl)-N-(3-fluorophenyl)-1-(2-oxaspiro[3.3]heptan-6-yl)piperidine-4-sulfonamide] | > 50000 | 666 | 75
O=S(=O)(N1CCN(C2CC3(CCC3)C2)CC1)N(Cc1cn2ccc(-c3nnc(C(F)F)o3)cc2n1)c1cccc(F)c1 [Compound 4622, N-((7-(5-(difluoromethyl)-1,3,4-oxadiazol-2-yl)imidazo[1,2-a]pyridin-2-yl)methyl)-N-(3-fluorophenyl)-4-(spiro[3.3]heptan-2-yl)piperazine-1-sulfonamide] | > 50000 | 274 | 182
O=S(=O)(N1CCN(C2CC3(COC3)C2)CC1)N(Cc1cn2ccc(-c3nnc(C(F)F)o3)cc2n1)c1cccc(F)c1 [Compound 4623, N-((7-(5-(difluoromethyl)-1,3,4-oxadiazol-2-yl)imidazo[1,2-a]pyridin-2-yl)methyl)-N-(3-fluorophenyl)-4-(2-oxaspiro[3.3]heptan-6-yl)piperazine-1-sulfonamide] | > 50000 | 806 | 62
